Data as given in patent publication US5219854A, “Blood platelet-decreasing method” (Nissan Chemical Industries Ltd., priority 1991, dated 1993).

Legend:
blood platelet count = assay: Change of blood platelet count at the time of repeated administration of Compound A; format: in vivo, human (healthy adult males)
Procedure: (§1) To each of six healthy adult males (23 to 32 years age, average: 28 years age), two tablets each containing 20 mg of 4-bromo-5-(3-ethoxy-4-methoxybenzylamino)-3(2H)-pyridazinone (Compound A) were orally administered (40 mg) three times a day (120 mg) in the morning, noon and evening for 7 days (on the 7th day, administered only in the morning). Examinations were conducted with respect to the following four items from the time before the administration to the time until the 29th day after the termination of administration.
(1) Hematological Examination
(§2) Erythrocyte count, leukocyte count, hemoglobin quantity, hematocrit value, blood platelet count, reticulocyte count, leukocyte fraction and prothrombin time

[1] = Subjective symptoms, diagnosis by doctor, scientific and clinical examination during repeated oral administration; format: in vivo, human (healthy adult males); settings: oral 40 mg three times a day for 7 days; until 29th day after the termination
Procedure: as §1
Everyday during the period of examination, each testee records the subjective symptoms.
A doctor makes diagnoses by asking, or ansculating and percussioning, and records their observations.
Blood pressure, pulse rate, body temperature, breathing rate, ECG (12 derivatives), pulmonary function (FVC, FEV1.0%), and visual or acoustic observation
as §2
Total protein, albumin, A/G ratio (protein fraction), BUN, creatinine, uric acid, total cholesterol, neutral fats, Na, K, Cl, Al-P, LAP, GOT, GPT, LDH, γ-GTP, ZTT, TTT, CPK, total bilirubin, direct bilirubin and blood sugar
Specific gravity, pH, bilirubin, urobilinogen, ketone body, sugar, protein and sedimentation

[2] = Acute toxicity test after single oral administration, mouse; settings: in vivo, mouse (ICR strain, 6 weeks old), read-out: 50% lethal dose (LD50)
Procedure: (§3) These compounds have low toxicities and thus may be sufficiently used for medical products. For example, the 50% lethal dose (LD50) in the acute toxicity tests after single oral administration of 4 brome-5-(3-ethoxy-4-methoxybenzylamino)-3(2H)-pyridazinone as a typical compound thereof, was 2,000 mg/kg with respect to each of mouse (ICR strain, 6 weeks old), rat (SD strain, 6 weeks old) and dog (beagle, 6 months old).

[3] = Acute toxicity test after single oral administration, rat; settings: in vivo, rat (SD strain, 6 weeks old), read-out: 50% lethal dose (LD50)
Procedure: as §3

[4] = Acute toxicity test after single oral administration, dog; settings: in vivo, dog (beagle, 6 months old), read-out: 50% lethal dose (LD50)
Procedure: as §3

CCOc1cc(CNc2cn[nH]c(=O)c2Br)ccc1OC [Compound A, 4-bromo-5-(3-ethoxy-4-methoxybenzylamino)-3(2H)-pyridazinone]
Blood platelet count, average value ± a standard deviation (blood platelet count; 1st day after the termination of administration, oral 40 mg three times a day for 7 days, ***p < 0.001 vs before administration (paired t-test)): 14.1 ± 2.0 ×10^4 /μl | Blood platelet count, average value ± a standard deviation (blood platelet count; 6th day after the termination of administration, oral 40 mg three times a day for 7 days, **p < 0.01 vs before administration (paired t-test)): 20.4 ± 2.2 ×10^4 /μl | Blood platelet count, average value ± a standard deviation (blood platelet count; 29th day after the termination of administration, oral 40 mg three times a day for 7 days): 29.2 ± 3.9 ×10^4 /μl | Blood platelet count, average value ± a standard deviation (blood platelet count; 3 days after the initiation of administration, oral 40 mg three times a day (120 mg/day), **p < 0.01 vs before administration (paired t-test)): 25.0 ± 2.7 ×10^4 /μl | Blood platelet count, average value ± a standard deviation (blood platelet count; before the initiation of administration (baseline), six healthy adult males): 27.6 ± 2.6 ×10^4 /μl | Symptoms or changes in all items of examinations other than the blood platelet count [1]: no problematic symptom or change has been observed | LD50 [2]: 2000 mg/kg | LD50 [3]: 2000 mg/kg | LD50 [4]: 2000 mg/kg
